A melting point compilation (Tetko et al.)

Row | SMILES | melting point [°C]
1 | C#CCNC(=O)c1cccc(C#N)c1 | 132 to 134
2 | CC(C)(C)n1c(N)nc2ccccc21 | 158 to 160
3 | O=C(O)C(Cc1c[nH]c2ccccc12)NS(=O)(=O)c1ccc(Cl)c(C(F)(F)F)c1 (stereo not given) | 185 to 187
4 | O=C1CCc2c(F)cc(F)cc21 | 95 to 97
5 | OCCNc1ccccn1 | 64 to 66
6 | CC(C)(C)OC(=O)N1CCCC(CC#N)C1 (stereo not given) | 48 to 50
7 | CC(=O)c1cc(C(=O)O)n(C)c1 | 177 to 181
8 | CC(Br)c1ccc([N+](=O)[O-])cc1 (stereo not given) | 33 to 35
9 | CC(NC(N)=O)C(=O)O (stereo not given) | 171 to 173
10 | O=C1CCc2cc(F)c([N+](=O)[O-])cc2N1 | 154 to 156
11 | CC1(C)CN(CC(N)=NO)CCO1 | 75 to 77
12 | Sc1nccn1Cc1ccccc1 | 146 to 148
13 | O=C(O)CCN1C(=O)C2CCCCC2C1=O (stereo not given) | 81 to 83
14 | COC(=O)c1c(S)nc(=O)[nH]c1C | 225 to 227
15 | CC(O)c1nc2ncc(Br)cc2[nH]1 (stereo not given) | 218 to 220
16 | CCc1c(C(C)(C)C)noc1N | 75 to 77
17 | COc1ccc(CCNC(C)=O)cc1S(=O)(=O)Cl | 76 to 78
18 | ClCc1noc(C2(c3ccccc3)CCOCC2)n1 | 74 to 76
19 | O=C(NCC1CCCNC1)c1ccccc1 (stereo not given) | 82 to 84
20 | CC(Cl)C(=O)NCCc1ccc2c(c1)OCCO2 (stereo not given) | 106 to 108
21 | N#CC1(CS(N)(=O)=O)CCCC1 | 72 to 74

Row | SMILES | melting point [°C]
22 | CN(C)C(=O)Cn1cc(C(=O)O)nn1 | 199 to 201
23 | O=C(O)c1cccc(S(=O)(=O)NCC2CCCO2)c1 (stereo not given) | 157 to 161
24 | O=C(CCl)c1ccc[nH]1 | 114 to 116
25 | CCOc1cc(C=CC(=O)O)ccc1OCCOc1ccc(F)cc1 | 105 to 107
26 | N#CC1(NC(=O)CCl)CCCC1 | 74 to 76
27 | Cc1cc(Br)ccc1CO | 74 to 76
28 | CCCCCCCCCCCC(=O)c1ccc(O)cc1 | 71 to 73
29 | ClCc1nnc(-c2cccc(Br)c2)o1 | 74 to 76
30 | CCOC(=O)c1ccc(S(=O)(=O)N2CCC(C(=O)O)CC2)cc1 | 219 to 221
31 | CCN(Cc1ccc2c(c1)OCCO2)C(=O)CCl | 213 to 215
32 | Fc1ccc2nc(S)n(-c3ccccc3F)c2c1 | 220 to 222
33 | O=C(O)c1ccc(CNC(=O)C23CC4CC(CC(C4)C2)C3)cc1 | 195 to 197
34 | CCOC(=O)c1c(C)n(Cc2ccccc2)c2ccc(O)cc12 | 198 to 200
35 | CC(C)(C)OC(=O)N1CCN(S(=O)(=O)C2CNC2)CC1 | 132 to 134
36 | S=C1NC2CCCCC2N1 (stereo not given) | 134 to 136
37 | NNC(=O)CCN1CCCC1 | 137 to 139
38 | N#Cc1cccc(Oc2ccc(N)cc2)c1 | 39 to 41
39 | O=C(CCl)N(C1CCCC1)C1CCS(=O)(=O)C1 (stereo not given) | < 17
40 | O=C1CC(=O)Nc2ccccc2N1 | 383 to 385
41 | CC1CCc2sc(C(=O)O)cc2C1 (stereo not given) | 132 to 136
42 | COc1ccc(Cn2nccc2N)c(OC)c1OC | 71 to 75

Row | SMILES | melting point [°C]
43 | CC(C)(C)OC(=O)NCCCCCCC(=O)O | 44 to 46
44 | NCc1c[nH]nn1 | 211 to 213
45 | CCc1nc2c(s1)C(O)CCC2 (stereo not given) | 75 to 77
46 | O=C1NC(=O)C2(CCCN(Cc3ccccc3)C2)N1 (stereo not given) | 209 to 211
47 | CCOC(=O)/C(C#N)=C/Nc1ccc(F)cc1F | 142 to 144
48 | CS(=O)(=O)NCCCN | 61 to 63
49 | C=CC(=O)Nc1cc(F)cc(F)c1 | 155 to 157
50 | O=S(=O)(Cl)c1ccc(OCC(F)F)c2ccccc12 | 115 to 117
51 | COC(=O)c1cc(Cl)cc([N+](=O)[O-])c1O | 163 to 165
52 | O=C1NCCNC1c1cccc(Br)c1 (stereo not given) | 117 to 119
53 | Fc1cc2nc(S)[nH]c2cc1F | 291 to 293
54 | CCNC(=O)Nc1cccc([N+](=O)[O-])c1 | 141 to 143
55 | Cn1cc(C#N)cc1C(=O)O | 239 to 241
56 | O=C(O)Cn1cccc(C(F)(F)F)c1=O | 199 to 201
57 | CNC(c1ccc(Cl)cc1)c1cccnc1 (stereo not given) | 44 to 46
58 | NCCCc1n[nH]c(N)c1-c1nc2ccccc2s1 | 313 to 315
59 | CC(C)C(NC(=O)OC(C)(C)C)C(N)=NO (stereo not given) | 182 to 184
60 | O=C(O)CN1C(=O)C2C3C=CC(C3)C2C1=O (stereo not given) | 146 to 148
61 | CCC1CCC2(CC1)NC(=O)NC2=O (stereo not given) | 230 to 232
62 | N#Cc1cccc(OCCBr)c1 | 36 to 38
63 | Cc1n[nH]c(C)c1C1COCCN1 (stereo not given) | 127 to 129

Row | SMILES | melting point [°C]
64 | CNC(=O)NN | 103 to 105
65 | C#CCNC(=O)Nc1ccccc1[N+](=O)[O-] | 190 to 192
66 | Cc1ccnc2c1NC(=O)CN2 | 216 to 218
67 | N#CC=Cc1cccnc1 | 104 to 106
68 | Nc1cc(N2CCCS2(=O)=O)ccc1Cl | 139 to 141
69 | Cn1ccc2c1C(=O)NCC2 | 71 to 73
70 | COC(=O)c1cc(C)nc(SC)n1 | 116 to 118
71 | C#CCNC(=O)Nc1cc(C)on1 | 163 to 165
72 | CCCCOc1ccc(C=CC(=O)O)cc1OCC | 109 to 111
73 | Nc1ccc(S(=O)(=O)NC2CC2)cc1 | 145 to 147
74 | NC(=O)CNc1ccccc1 | 139 to 141
75 | S=C1Nc2ccccc2C2CC=NN12 (stereo not given) | 249 to 251
76 | Cn1ncc2c1CCCC2O (stereo not given) | 104 to 106
77 | COC(=O)c1ccc(F)c(CBr)c1 | 50 to 52
78 | NC(=O)C1CCCN(C(=O)CCl)C1 (stereo not given) | 124 to 126
79 | CC(=O)c1cc(F)c(N)c(F)c1 | 69 to 71
80 | NS(=O)(=O)c1ccc(-c2ccc(Br)cc2)cc1 | 207 to 209
81 | CC(C)(C)c1noc(C(N2CCOCC2)N2CCOCC2)n1 | 80 to 82
82 | COc1cc2c(cc1OC)C(c1cccs1)NCC2 (stereo not given) | 112 to 115
83 | O=c1[nH]c(CN2CCNCC2)nc2ccccc12 | 167 to 169
84 | N#Cc1ccccc1NCc1ccco1 | 60 to 62

More lines, now with the values ahead:

Row | melting point [°C] | SMILES
85 | 208 to 210 | COc1cccc(/C=C/C(=O)O)c1OC(F)F
86 | 267 to 269 | O=C1NC(=O)C(Cc2ccc(O)cc2)N1 (stereo not given)
87 | 235 to 237 | Cn1ccnc1COc1ccc(C(=O)O)cc1
88 | 185 to 187 | COC(=O)c1ccc(NC(=O)Oc2ccccc2)cc1
89 | 224 to 226 | Nc1nn(C(=O)c2ccccc2Br)c2ccccc12
90 | 189 to 191 | O=C(O)c1ccccc1NCc1cccnc1
91 | 100 to 102 | CC(C)CNC(=O)c1ccc(N)cc1Cl
92 | 51 to 53 | COC(=O)c1ccc(S(=O)(=O)Cl)c(C)c1
93 | 181 to 183 | O=C(Nc1cccc2cnccc12)OCC(F)(F)F
94 | 127 to 129 | O=C(O)Cc1cccc2sccc12
95 | 98 to 100 | Nc1nc(-c2ccc(Cl)s2)cs1
96 | < 17 | CC(Cl)c1nnc(-c2ccccc2)o1 (stereo not given)
97 | 168 to 170 | COc1ccc(CN2C(=O)NC(=O)C2=O)cc1
98 | 229 to 231 | O=C(O)c1cc(F)ccc1-n1ccnc1
99 | 80 to 82 | CC(=O)c1cnc2ccnn2c1C
100 | 319 to 321 | O=C(O)c1ccc2[nH]c(-c3ccc(Cl)cc3)nc2c1
101 | 174 to 176 | O=C(O)Cc1ccc(NS(=O)(=O)c2ccc(Cl)c(Cl)c2)cc1
102 | 159 to 161 | Cc1cc(C(=O)O)c(F)cc1F
103 | 143 to 145 | Cn1c(C(=O)O)ccc1-c1ccccc1
104 | 89 to 91 | Nc1cc(-c2ccsc2)no1
105 | 269 to 271 | COc1ccc(-c2n[nH]c(=O)c3ccccc23)cc1F

Row | melting point [°C] | SMILES
106 | 55 to 57 | CCOC(=O)c1ccc(C(C)=O)cc1
107 | 182 to 184 | CSc1ccc(C(=O)O)cn1
108 | 90 to 92 | CC(O)c1ccc(-n2cncn2)cc1 (stereo not given)
109 | 204 to 206 | O=C(O)c1scnc1C1CC1
110 | 96 to 98 | COc1ccc2oc(C(C)=O)c(C)c2c1
111 | 156 to 158 | CC(C)(C)c1ccc(C(=O)O)cc1[N+](=O)[O-]
112 | 199 to 201 | COc1cc(/C=C(/C#N)C(=O)O)ccc1O
113 | 174 to 176 | COc1cc(C(=O)O)ccc1OCc1ccccc1
114 | 174 to 176 | Cc1nc(-c2ccsc2)ccc1C(=O)O
115 | 151 to 153 | O=C(O)c1ccc(Oc2cccc(Br)c2)cc1
116 | 226 to 228 | Cc1nc2cc(F)cc(C(=O)O)c2nc1C
117 | 135 to 137 | CCCc1ncc(C(=O)O)s1
118 | 122 to 124 | O=C(O)C1CC1c1ccc(Br)cc1 (stereo not given)
119 | 50 to 52 | COc1ccccc1C(C)CC(=O)O (stereo not given)
120 | 97 to 99 | Cc1sc(C(=O)O)cc1[N+](=O)[O-]
121 | 73 to 75 | O=C(O)CSc1ccc(F)cc1F
122 | 106 to 108 | O=C(O)CCCc1ccc(O)cc1
123 | 78 to 80 | COC(=O)c1ccccc1NC(=O)CBr
124 | 184 to 186 | CC(Nc1ncc(C(=O)O)cc1Cl)c1cccnc1 (stereo not given)
125 | 116 to 118 | Cc1ccc(C(=O)C(Br)CC(=O)O)cc1 (stereo not given)
126 | 212 to 214 | Cc1cc(=O)[nH]c(-c2cccc(N)c2)n1

Row | melting point [°C] | SMILES
127 | 207 to 209 | O=C(Nc1ccsc1C(=O)O)c1ccoc1
128 | 151 to 153 | Cc1cc(C(=O)O)c(C)n1Cc1ccccn1
129 | 219 to 221 | Cc1nscc1C(=O)O
130 | 259 to 261 | Cc1nc(-c2ccc(N)cc2)cc(=O)[nH]1
131 | 123 to 125 | N#Cc1cccc(OCC(=O)O)c1
132 | 56 to 58 | N#CSCC(=O)c1ccccc1Cl
133 | 134 to 136 | Cc1ccc(S(=O)(=O)OI(O)c2ccccc2)cc1
134 | 179 to 181 | O=C(O)c1ccc(CSc2ccccc2)cc1
135 | 156 to 158 | O=C(O)CN1CCOc2ccc(Cl)cc21
136 | 187 to 189 | Cc1cc(C(=O)O)c(C)n1-c1ccccn1
137 | 239 to 241 | O=C(O)c1cc(Br)cnc1S
138 | 113 to 115 | Nc1ccc(CCC(=O)O)nc1
139 | 132 to 134 | CC(C)c1ccc2cc(C(=O)O)[nH]c2c1
140 | 81 to 83 | CCN(c1ccccc1)S(=O)(=O)c1ccc(Cl)nc1
141 | 195 to 197 | CC(=O)N(c1nc(/C=C\C(=O)O)cs1)c1ccccc1F
142 | 44 to 45 | Nc1ccccc1C(=O)Nc1ccc(Cl)cc1
143 | 102 to 104 | CCOc1ccc(-c2nc(CCl)co2)cc1
144 | 184 to 186 | O=C(O)c1cc(Cl)ccc1NS(=O)(=O)c1ccccc1
145 | 204 to 206 | O=C(O)c1ccc([N+](=O)[O-])c2cccnc12
